# pIC50: −log10 of the molar value. Starred links: 1 amine or outer side, 2 acyl side, 3 side chain; linkers in the order of their positions; H or OH if unused. Positions of bridges follow the written chain, without caps; N, C: chain ends. Non-standard residues stand in square brackets, D forms with d. Residues, ends and D or L forms follow the SMILES beside them. *: point of attachment. hPhe(3-Cl-4-CF3) = N[C@@H](CCc1ccc(C(F)(F)F)c(Cl)c1)C(=O)O; NMePhe(4-CF3) = CN[C@@H](Cc1ccc(C(F)(F)F)cc1)C(=O)O; NMePhe(4-Cl) = CN[C@@H](Cc1ccc(Cl)cc1)C(=O)O; NMedβ3hAla = C[C@H](CC(=O)[*:2])N(C)[*:1]; Leu(4,5-dehydro) = C=C(C)C[C@H](N)C(=O)O; NMeAla(cPent) = CN[C@@H](CC1CCCC1)C(=O)O; Phe(3-Br) = N[C@@H](Cc1cccc(Br)c1)C(=O)O; NMeGly(cPent) = CN[C@H](C(=O)O)C1CCCC1; Phe(3-I) = N[C@@H](Cc1cccc(I)c1)C(=O)O; X10 = CC(C)=CC[C@H](N[*:1])C(=O)[*:2]; NMeY = CN[C@@H](Cc1ccc(O)cc1)C(=O)O; NMeCha = CN[C@@H](CC1CCCCC1)C(=O)O; NMeAoc(2) = CCCCCC[C@H](NC)C(=O)O; dNMeF = CN[C@H](Cc1ccccc1)C(=O)O; hPhe = N[C@@H](CCc1ccccc1)C(=O)O; NMeD = CN[C@@H](CC(=O)O)C(=O)O; AllylGly = C=CC[C@H](N)C(=O)O; NMeL = CN[C@@H](CC(C)C)C(=O)O; Cba = N[C@@H](CC1CCC1)C(=O)O; hLeu = CC(C)CC[C@H](N)C(=O)O; NMeA = CN[C@@H](C)C(=O)O; NMeAib = CNC(C)(C)C(=O)O; Nle = CCCC[C@H](N)C(=O)O; Piperidide = C1CCN(*)CC1; Pra = C#CC[C@H](N)C(=O)O; Pyrrolidide = C1CCN(*)C1; Ac5c = NC1(C(=O)O)CCCC1; Aze = O=C(O)[C@@H]1CCN1; Sar = CNCC(=O)O
# Target: T1, Kras and SOS1 (biotin-tagged human Kras loaded with GDP, His-tagged human SOS1) (Homo sapiens, UniProt P01116, G12D)
# T1 construct: made in house; host or cells: E. coli (stated for Kras only)
# Experiment: Protein-protein interaction inhibition between Kras and SOS1 (KrasGl2D-SOS PPI) using AlphaScreen
# Type: binding
# Conditions: AlphaScreen; biotin-tagged human Kras loaded with GDP, His-tagged human SOS1; read-out: KRAS G12D-SOS PPI IC50
# Method in brief: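 Energy transfer from nickel-chelate donor beads bound to His-SOS1 to streptavidin acceptor beads bound to biotin-Kras, expressed in E. coli and loaded with GDP after purification, was monitored. Donors were excited at 680 nm; singlet oxygen reaching acceptors gave emission read at 520-620 nm.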
# T1 sequence (P01116 1-188 isoform P01116-2 G12D): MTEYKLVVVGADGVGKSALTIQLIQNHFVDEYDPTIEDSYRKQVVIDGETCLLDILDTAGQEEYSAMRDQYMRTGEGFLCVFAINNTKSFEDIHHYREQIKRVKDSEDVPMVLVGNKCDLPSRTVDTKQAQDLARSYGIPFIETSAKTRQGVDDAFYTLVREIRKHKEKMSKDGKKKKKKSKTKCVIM
row,SMILES,pIC50
1,"C=C(C)C[C@@H]1NC(=O)[C@H](Cc2cccc(I)c2)NC(=O)CN(C)C(=O)[C@H](Cc2ccc(Cl)cc2)N(C)C(=O)[C@@H]2CCN2C(=O)CN(C)C(=O)[C@H]([C@@H](C)CC)NC(=O)[C@H](CC(C)C)N(C)C(=O)C[C@@H](C(=O)N2CCCCC2)N(C)C(=O)[C@H](CC(C)C)NC(=O)C(C)(C)N(C)C1=O [Compound 1414] ([NMeL]I[Sar][Aze][NMePhe(4-Cl)][Sar][Phe(3-I)][Leu(4,5-dehydro)][NMeAib]L[NMeD]-Piperidide; lactam N-11)",7.42
2,CCCC[C@@H]1NC(=O)[C@H](Cc2cccc(Br)c2)NC(=O)CN(C)C(=O)[C@H](Cc2ccc(Cl)cc2)N(C)C(=O)[C@@H]2CCN2C(=O)[C@H](C)N(C)C(=O)[C@H]([C@@H](C)CC)NC(=O)[C@H](CC(C)C)N(C)C(=O)C[C@@H](C(=O)N2CCCCC2)N(C)C(=O)[C@H](CC(C)C)NC(=O)C(C)(C)N(C)C1=O [Compound 1415] ([NMeL]I[NMeA][Aze][NMePhe(4-Cl)][Sar][Phe(3-Br)][Nle][NMeAib]L[NMeD]-Piperidide; lactam N-11),7.47
3,CCCC[C@@H]1NC(=O)[C@H](Cc2cccc(I)c2)NC(=O)CN(C)C(=O)[C@H](CC2CCCCC2)N(C)C(=O)CN(C)C(=O)CN(C)C(=O)[C@H]([C@@H](C)CC)NC(=O)[C@H](CC(C)C)N(C)C(=O)C[C@@H](C(=O)N2CCCCC2)N(C)C(=O)[C@H](CC(C)C)NC(=O)C(C)(C)N(C)C1=O [Compound 1416] ([NMeL]I[Sar][Sar][NMeCha][Sar][Phe(3-I)][Nle][NMeAib]L[NMeD]-Piperidide; lactam N-11),7.01
4,CCCCCC[C@H]1C(=O)N[C@@H]([C@@H](C)CC)C(=O)N(C)CC(=O)N2CC[C@H]2C(=O)N(C)[C@@H](Cc2ccc(OC)cc2)C(=O)N(C)CC(=O)N[C@@H](Cc2cccc(I)c2)C(=O)N[C@@H](CCCC)C(=O)N(C)C(C)(C)C(=O)N[C@@H](CC(C)C)C(=O)N(C)[C@H](C(=O)N2CCCCC2)CC(=O)N1C [Compound 1417] ([NMeAoc(2)]I[Sar][Aze][NMeY](Me)[Sar][Phe(3-I)][Nle][NMeAib]L[NMeD]-Piperidide; lactam N-11),7.54
5,CC[C@H](C)[C@@H]1NC(=O)[C@H](CC(C)C)N(C)C(=O)C[C@@H](C(=O)N2CCCCC2)N(C)C(=O)[C@H](CC(C)C)NC(=O)C(C)(C)N(C)C(=O)[C@H](CC=C(C)C)NC(=O)[C@H](Cc2cccc(I)c2)NC(=O)CN(C)C(=O)[C@H](Cc2ccc(Cl)cc2)N(C)C(=O)[C@@H]2CCN2C(=O)[C@H](C)N(C)C1=O [Compound 1419] ([NMeL]I[NMeA][Aze][NMePhe(4-Cl)][Sar][Phe(3-I)][X10][NMeAib]L[NMeD]-Piperidide; lactam N-11),7.34
6,CCCC[C@@H]1NC(=O)[C@H](Cc2cccc(I)c2)NC(=O)CN(C)C(=O)[C@H](CC2CCCCC2)N(C)C(=O)[C@@H]2CCN2C(=O)CN(C)C(=O)[C@H]([C@@H](C)CC)NC(=O)[C@H](CC(C)C)N(C)C(=O)C[C@@H](C(=O)N2CCCCC2)N(C)C(=O)[C@H](CC(C)C)NC(=O)C(C)(C)N(C)C1=O [Compound 1420] ([NMeL]I[Sar][Aze][NMeCha][Sar][Phe(3-I)][Nle][NMeAib]L[NMeD]-Piperidide; lactam N-11),7.05
7,"C=C(C)C[C@@H]1NC(=O)[C@H](Cc2cccc(I)c2)NC(=O)CN(C)C(=O)[C@H](Cc2ccc(Cl)cc2)N(C)C(=O)CN(C)C(=O)CN(C)C(=O)[C@H]([C@@H](C)CC)NC(=O)[C@H](CC(C)C)N(C)C(=O)C[C@@H](C(=O)N2CCCCC2)N(C)C(=O)[C@H](CC(C)C)NC(=O)C(C)(C)N(C)C1=O [Compound 1421] ([NMeL]I[Sar][Sar][NMePhe(4-Cl)][Sar][Phe(3-I)][Leu(4,5-dehydro)][NMeAib]L[NMeD]-Piperidide; lactam N-11)",7.49
8,CCCC[C@@H]1NC(=O)[C@H](Cc2cccc(I)c2)NC(=O)CN(C)C(=O)[C@H](Cc2ccc(Cl)cc2)N(C)C(=O)CN(C)C(=O)CN(C)C(=O)[C@H]([C@@H](C)CC)NC(=O)[C@H](CC(C)C)N(C)C(=O)C[C@@H](C(=O)N2CCCCC2)N(C)C(=O)[C@H](CC2CCC2)NC(=O)C(C)(C)N(C)C1=O [Compound 1422] ([NMeL]I[Sar][Sar][NMePhe(4-Cl)][Sar][Phe(3-I)][Nle][NMeAib][Cba][NMeD]-Piperidide; lactam N-11),7.80
9,CCCC[C@@H]1NC(=O)[C@H](Cc2cccc(I)c2)NC(=O)CN(C)C(=O)[C@H](CC2CCCC2)N(C)C(=O)CN(C)C(=O)CN(C)C(=O)[C@H]([C@@H](C)CC)NC(=O)[C@H](CC(C)C)N(C)C(=O)C[C@@H](C(=O)N2CCCCC2)N(C)C(=O)[C@H](CC(C)C)NC(=O)C(C)(C)N(C)C1=O [Compound 1423] ([NMeL]I[Sar][Sar][NMeAla(cPent)][Sar][Phe(3-I)][Nle][NMeAib]L[NMeD]-Piperidide; lactam N-11),6.72
10,C#CC[C@@H]1NC(=O)[C@H](Cc2cccc(I)c2)NC(=O)CN(C)C(=O)[C@H](Cc2ccc(C(F)(F)F)cc2)N(C)C(=O)[C@@H]2CCN2C(=O)CN(C)C(=O)[C@H]([C@@H](C)CC)NC(=O)[C@H](CC(C)C)N(C)C(=O)C[C@@H](C(=O)N2CCCCC2)N(C)C(=O)[C@H](CC(C)C)NC(=O)C(C)(C)N(C)C1=O [Compound 1425] ([NMeL]I[Sar][Aze][NMePhe(4-CF3)][Sar][Phe(3-I)][Pra][NMeAib]L[NMeD]-Piperidide; lactam N-11),7.72
11,C#CC[C@@H]1NC(=O)[C@H](Cc2cccc(I)c2)NC(=O)CN(C)C(=O)[C@H](Cc2ccc(Cl)cc2)N(C)C(=O)CN(C)C(=O)CN(C)C(=O)[C@H]([C@@H](C)CC)NC(=O)[C@H](CC(C)C)N(C)C(=O)C[C@@H](C(=O)N2CCCCC2)N(C)C(=O)[C@H](CC(C)C)NC(=O)C(C)(C)N(C)C1=O [Compound 1426] ([NMeL]I[Sar][Sar][NMePhe(4-Cl)][Sar][Phe(3-I)][Pra][NMeAib]L[NMeD]-Piperidide; lactam N-11),7.32
12,C#CC[C@@H]1NC(=O)[C@H](Cc2cccc(I)c2)NC(=O)CN(C)C(=O)[C@H](Cc2ccc(C(F)(F)F)cc2)N(C)C(=O)[C@@H]2CCN2C(=O)CN(C)C(=O)[C@H]([C@@H](C)CC)NC(=O)[C@H](CC(C)C)N(C)C(=O)C[C@@H](C)N(C)C(=O)[C@H](CC(C)C)NC(=O)C(C)(C)N(C)C1=O [Compound 1427] (cyclo([Aze][NMePhe(4-CF3)][Sar][Phe(3-I)][Pra][NMeAib]L[NMedβ3hAla][NMeL]I[Sar])),6.60
13,C#CC[C@@H]1NC(=O)[C@H](Cc2cccc(I)c2)NC(=O)CN(C)C(=O)[C@H](Cc2ccc(Cl)cc2)N(C)C(=O)[C@@H]2CCN2C(=O)[C@H](C)N(C)C(=O)[C@H]([C@@H](C)CC)NC(=O)[C@H](CC(C)C)N(C)C(=O)C[C@@H](C(=O)N2CCCCC2)N(C)C(=O)[C@H](CC(C)C)NC(=O)C(C)(C)N(C)C1=O [Compound 1428] ([NMeL]I[NMeA][Aze][NMePhe(4-Cl)][Sar][Phe(3-I)][Pra][NMeAib]L[NMeD]-Piperidide; lactam N-11),7.38
14,"C=C(C)C[C@@H]1NC(=O)[C@H](Cc2cccc(I)c2)NC(=O)CN(C)C(=O)[C@H](Cc2ccc(Cl)cc2)N(C)C(=O)[C@@H]2CCN2C(=O)[C@H](C)N(C)C(=O)[C@H]([C@@H](C)CC)NC(=O)[C@H](CC(C)C)N(C)C(=O)C[C@@H](C(=O)N2CCCCC2)N(C)C(=O)[C@H](CC(C)C)NC(=O)C(C)(C)N(C)C1=O [Compound 1429] ([NMeL]I[NMeA][Aze][NMePhe(4-Cl)][Sar][Phe(3-I)][Leu(4,5-dehydro)][NMeAib]L[NMeD]-Piperidide; lactam N-11)",7.36
15,CCCC[C@@H]1NC(=O)[C@H](Cc2cccc(I)c2)NC(=O)CN(C)C(=O)[C@H](Cc2ccc(Cl)cc2)N(C)C(=O)CN(C)C(=O)CN(C)C(=O)[C@H]([C@@H](C)CC)NC(=O)[C@H](CC(C)C)N(C)C(=O)C[C@@H](C(=O)N2CCCC2)N(C)C(=O)[C@H](CCc2ccccc2)NC(=O)C(C)(C)N(C)C1=O [Compound 1430] ([NMeL]I[Sar][Sar][NMePhe(4-Cl)][Sar][Phe(3-I)][Nle][NMeAib][hPhe][NMeD]-Pyrrolidide; lactam N-11),6.40
16,C=CC[C@@H]1NC(=O)[C@H](Cc2cccc(I)c2)NC(=O)CN(C)C(=O)[C@H](Cc2ccc(Cl)cc2)N(C)C(=O)CN(C)C(=O)CN(C)C(=O)[C@H]([C@@H](C)CC)NC(=O)[C@H](CC(C)C)N(C)C(=O)C[C@@H](C(=O)N2CCCC2)N(C)C(=O)[C@H](CC(C)C)NC(=O)C(C)(C)N(C)C1=O [Compound 1431] ([NMeL]I[Sar][Sar][NMePhe(4-Cl)][Sar][Phe(3-I)][AllylGly][NMeAib]L[NMeD]-Pyrrolidide; lactam N-11),6.66
17,CCCC[C@@H]1NC(=O)[C@H](Cc2cccc(I)c2)NC(=O)CN(C)C(=O)[C@H](CC2CCCC2)N(C)C(=O)[C@@H]2CCN2C(=O)[C@H](C)N(C)C(=O)[C@H]([C@@H](C)CC)NC(=O)[C@H](CC(C)C)N(C)C(=O)C[C@@H](C(=O)N2CCCCC2)N(C)C(=O)[C@H](CC(C)C)NC(=O)C(C)(C)N(C)C1=O [Compound 1432] ([NMeL]I[NMeA][Aze][NMeAla(cPent)][Sar][Phe(3-I)][Nle][NMeAib]L[NMeD]-Piperidide; lactam N-11),6.59
18,CCCC[C@@H]1NC(=O)[C@H](Cc2cccc(I)c2)NC(=O)CN(C)C(=O)[C@H](Cc2ccc(C(F)(F)F)cc2)N(C)C(=O)CN(C)C(=O)CN(C)C(=O)[C@H]([C@@H](C)CC)NC(=O)[C@H](CC(C)C)N(C)C(=O)C[C@@H](C(=O)N2CCCCC2)N(C)C(=O)[C@H](CCC(C)C)NC(=O)C(C)(C)N(C)C1=O [Compound 1433] ([NMeL]I[Sar][Sar][NMePhe(4-CF3)][Sar][Phe(3-I)][Nle][NMeAib][hLeu][NMeD]-Piperidide; lactam N-11),7.54
19,CC[C@H](C)[C@@H]1NC(=O)[C@H](CC(C)C)N(C)C(=O)C[C@@H](C(=O)N2CCCCC2)N(C)C(=O)[C@H](C2CCCC2)N(C)C(=O)C2(CCCC2)NC(=O)[C@@H](Cc2ccccc2)N(C)C(=O)[C@H](CCc2ccc(C(F)(F)F)c(Cl)c2)NC(=O)CN(C)C(=O)[C@H](CC2CCCCC2)N(C)C(=O)[C@@H]2CCN2C(=O)[C@H](C)N(C)C1=O [Compound 1434] ([NMeL]I[NMeA][Aze][NMeCha][Sar][hPhe(3-Cl-4-CF3)][dNMeF][Ac5c][NMeGly(cPent)][NMeD]-Piperidide; lactam N-11),6.82
